In publication PMC6695788, “Screening and Isolating Major Aldose Reductase Inhibitors from the Seeds of Evening Primrose (Oenothera biennis)” (Molecules, 2019):
Where two headings read alike, the source gives them in different places.

What was measured:
[1] = biological target: T1, rat lens aldose reductase (RLAR) (Rattus norvegicus, UniProt P07943); assay: Rat lens aldose reductase (RLAR) inhibitory assay; type: biochemical; conditions: mean ± SD (n = 3); for inhibition at 10 µg/mL: sample concentration 10 μg/mL
T1 construct: the supernatant that retained the RLAR was collected for further tests; from tissue; host or cells: eye lens of Sprague-Dawley rats
Method: To extract the RLAR, the eye lens removed from the rats were first homogenized with sodium phosphate buffer (0.1 M, pH 6.2). […] Finally, the supernatant that retained the RLAR was collected for further tests. […] The inhibitory activities of the samples can be calculated using Equation (1):(1) Inhibition (%)=(1−ΔAsample−ΔAblank/ΔAcontrol−ΔAblank)×100% where ΔAcontrol is the absorbance change in 3 min of the tested mixture without the sample; ΔAblank is the absorbance change in 3 min of the tested mixture without RLAR; and ΔAsample is the absorbance change in 3 min of the tested mixture. The IC50 values of the active samples were also calculated and listed, where IC50 indicates the concentration of the tested sample required to consume half of the NADPH.

[2] = biological target: T2, human recombinant aldose reductase (Homo sapiens, UniProt P15121); assay: Affinity-based ultrafiltration-HPLC screening; type: binding; conditions: ESME incubated with AR 6.9 µM, 37 °C, 30 min, ultrafiltrate analysed
T2 construct: purchased Wako Pure Chemical Industries Ltd. (Osaka, Japan)
Method: The ultrafiltrate was collected for further HPLC analysis.
HPLC analysis was performed using an Agilent 1100 HPLC instrument (Agilent, Santa Clara, CA, USA) equipped with an Eclipse Plus C18 column (150 mm length, 4.6 mm i.d., and 5 µm particle size; Agilent, Santa Clara, CA, USA). The temperature of the column oven was set at 30 °C and the injection volumes of the samples were 10 µL.

Compound	IC50 ([1]; isolated compounds, read-out: IC50)	inhibition at 10 µg/mL ([1]; isolated compounds)	HPLC peak area after incubation with human recombinant aldose reductase vs without [2]	IC50 ([1]; IC50, isolated compounds)	inhibition at 10 µg/mL ([1]; extracts and fractions)
Oc1cc(O)c2c(c1)O[C@H](c1ccc(O)c(O)c1)[C@@H](O)C2 [Catechin (3), catechin]	14.8 ± 3.17 µM	69.6 ± 1.99%	decreased		
O=C(O)c1cc(O)c(O)c(O)c1 [Gallic acid (1), gallic acid]		80.2 ± 1.56%	decreased	11.5 ± 1.82 µM	
COC(=O)c1cc(O)c(O)c(O)c1 [Methyl gallate (4), methyl gallate]		32.2 ± 0.97%	decreased		
Oc1cc(O)c2c(c1)O[C@H](c1ccc(O)c(O)c1)[C@@H](O)[C@@H]2c1c(O)cc(O)c2c1O[C@H](c1ccc(O)c(O)c1)[C@@H](O)C2 [Procyanidin B3 (2), procyanidin B3]		44.6 ± 1.99%	decreased		
O=c1c(O)c(-c2ccc(O)c(O)c2)oc2cc(O)cc(O)c12 [Quercetin, quercetin, reference compound]					81.6 ± 3.81%
